Measurements: patent US7601746B2 (Shionogi & Co., Ltd., priority 2003, dated 2009)

target: T1, human TPO receptor (hTPOR) (Homo sapiens, UniProt P40238); assay: Thrombopoietic activity: proliferation of TPO dependent BaF/hTPOR cells (WST-1, absorbance at 450 nm); type: cell-based; conditions: 20 h + 4 h WST-1, ED50 = half concentration of the concentration showing the maximum thrombopoietic activity, Table 1
T1 construct: expressed in transfected cells; host or cells: BaF-B03 (murine IL-3 dependent cell line)
T1 sequence (P40238 26-635): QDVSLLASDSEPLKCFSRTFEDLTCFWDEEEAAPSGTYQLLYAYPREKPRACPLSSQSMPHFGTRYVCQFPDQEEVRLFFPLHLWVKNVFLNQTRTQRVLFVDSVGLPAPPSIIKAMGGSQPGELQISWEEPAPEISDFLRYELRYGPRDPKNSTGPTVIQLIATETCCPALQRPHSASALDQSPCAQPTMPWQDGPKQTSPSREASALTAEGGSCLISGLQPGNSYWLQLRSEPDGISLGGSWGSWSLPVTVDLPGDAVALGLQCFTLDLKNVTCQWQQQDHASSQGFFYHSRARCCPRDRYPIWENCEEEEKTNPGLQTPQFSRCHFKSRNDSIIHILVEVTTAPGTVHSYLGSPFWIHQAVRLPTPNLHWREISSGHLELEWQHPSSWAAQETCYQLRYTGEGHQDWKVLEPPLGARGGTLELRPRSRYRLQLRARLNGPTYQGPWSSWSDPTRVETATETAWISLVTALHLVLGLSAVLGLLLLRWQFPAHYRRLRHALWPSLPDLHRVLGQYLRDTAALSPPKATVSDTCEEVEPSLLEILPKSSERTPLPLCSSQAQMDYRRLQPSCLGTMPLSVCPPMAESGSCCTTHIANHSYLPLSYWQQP
Procedure, shortened: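 Proliferation read-out: WST-1 absorbance at 450 nm after 20 h compound exposure plus 4 h reagent, using IL-3-deprived BaF/hTPOR cells (5×10^4 per well) dependent on human TPO receptor signalling. ED50 defined as half the concentration producing maximal activity.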

`CCOCCCCOC(CC)c1cccc(-c2csc(NC(=O)c3cc(F)c(C=C(C)C(=O)O)c(F)c3)n2)c1F` (stereo not drawn) [Compound B22, 3-[2,6-difluoro-4-(4-{3-[1-(4-ethyloxybutyloxy)propyl]-2-fluorophenyl}thiazol-2-ylcarbamoyl)phenyl]-2-methylacrylic acid] and `CCCCCOCCCC(OC)c1cccc(-c2csc(NC(=O)c3cc(F)c(C=C(C)C(=O)O)c(F)c3)n2)c1F` (stereo not drawn) [Compound B53, 3-(2,6-difluoro-4-{4-[2-fluoro-3-(1-methyloxy-4-n-pentyloxybutyl)phenyl]thiazol-2-ylcarbamoyl}phenyl)-2-methylacrylic acid] are within 1.5-fold of each other in EC50: 1.14 nM for the first, 1.4 nM for the second.

Going from `CCCCCc1cccc2c1CCc1sc(NC(=O)c3cc(F)c(C=C(C)C(=O)O)c(F)c3)nc1-2` [Compound A2, 3-[2,6-difluoro-4-(4,5-dihydro-6-pentylnaphtho[1,2-d]thiazol-2-ylcabamoyl)phenyl]-2-methylacrylic acid] to `CC(=Cc1c(F)cc(C(=O)Nc2nc3c(s2)CCc2c(CCCOC(C)C)cccc2-3)cc1F)C(=O)O` [Compound A7, 3-{2,6-difluoro-4-[4,5-dihydro-6-(3-isopropyloxypropyl)naphtho[1,2-d]thiazol-2-ylcabamoyl]phenyl}-2-methylacrylic acid], the EC50 falls from 4 nM to 2.26 nM (1.8-fold). The second is the more potent here.

`CCCCCCOC(c1cccc(-c2csc(NC(=O)c3cc(F)c(/C=C(\C)C(=O)O)c(F)c3)n2)c1OC)C1CCCCC1` (stereo not drawn) [Compound B519] and `CCCCCOC(c1cccc(-c2csc(NC(=O)c3cc(F)c(C=C(C)C(=O)O)c(F)c3)n2)c1F)C1CCCCC1` (stereo not drawn) [Compound B14, 3-(4-{4-[3-(1-cyclohexyl-1-n-pentyloxymethyl)-2-fluorophenyl]thiazol-2-ylcarbamoyl}-2,6-difluorophenyl)-2-methylacrylic acid] are within 1.5-fold of each other in EC50: 1.03 nM for the first, 0.73 nM for the second.

`C/C(=C\c1c(F)cc(C(=O)Nc2nc3c(s2)COc2c-3cccc2C(C)C)cc1F)C(=O)O` [Compound A1309, (E)-3-[2,6-difluoro-4-(6-isopropyl-4H-chromeno[4,3-d]thiazol-2-ylcarbamoyl)phenyl]-2-methylacrylic acid] and `CCCc1cccc2c1OCc1sc(NC(=O)c3cc(F)c(/C=C(\C)C(=O)O)c(F)c3)nc1-2` [Compound A1308, (E)-3-[2,6-difluoro-4-(6-propyl-4H-chromeno[4,3-d]thiazol-2-ylcabamoyl)phenyl]-2-methylacrylic acid] are within 1.5-fold of each other in EC50: 12.8 nM for the first, 12.9 nM for the second.

`CCCCOC(C)c1cccc(-c2csc(NC(=O)c3cc(Cl)c(C=C(C)C(=O)O)c(Cl)c3)n2)c1F` (stereo not drawn) [Compound B98, 3-(4-{4-[3-(1-n-butyloxyethyl)-2-fluorophenyl]thiazol-2-ylcarbamoyl)-2,6-dichlorophenyl]-2-methylacrylic acid] and `CCCCOC(CCCC)c1cccc(-c2csc(NC(=O)c3cc(Cl)c(C=C(C)C(=O)O)c(Cl)c3)n2)c1F` (stereo not drawn) [Compound B87, 3-(4-{4-[3-(1-n-butyloxypentyl)-2-fluorophenyl]thiazol-2-ylcarbamoyl}-2,6-dichlorophenyl)-2-methylacrylic acid] are within 1.5-fold of each other in EC50: 0.73 nM for the first, 0.62 nM for the second.

`COc1c(CCCOCC2CCCC2)cccc1-c1csc(NC(=O)c2cc(Cl)c(/C=C(\C)C(=O)O)c(Cl)c2)n1` [Compound B1949, (E)-3-(2,6-dichloro-4-{4-[3-(3-cyclopentylmethyloxypropyl)-2-methyloxyphenyl]thiazol-2-ylcarbamoyl}phenyl)-2-methylacrylic acid] and `COc1c(COCCC(C)C)cccc1-c1csc(NC(=O)c2cc(Cl)c(/C=C(\C)C(=O)O)c(Cl)c2)n1` [Compound B2028, (E)-3-(2,6-dichloro-4-{4-[2-methyloxy-3-(3-methylbutyloxymethyl)phenyl]thiazol-2-ylcarbamoyl}phenyl)-2-methylacrylic acid] are within 1.5-fold of each other in EC50: 13.2 nM for the first, 11.4 nM for the second.

`COc1c(COCCC(C)C)cccc1-c1csc(NC(=O)c2cc(F)c(/C=C(\C)C(=O)O)c(F)c2)n1` [Compound B2027, (E)-3-(2,6-difluoro-4-{4-[2-methyloxy-3-(3-methylbutyloxymethyl)phenyl]thiazol-2-ylcarbamoyl}phenyl)-2-methylacrylic acid] and `COc1c(COCCC(C)(C)C)cccc1-c1csc(NC(=O)c2cc(F)c(/C=C(\C)C(=O)O)c(F)c2)n1` [Compound B1934, (E)-3-(4-{4-[3-(3,3-dimethylbutyloxymethyl)-2-methyloxyphenyl]thiazol-2-ylcarbamoyl}-2,6-difluorophenyl)-2-methylacrylic acid] are within 1.5-fold of each other in EC50: 12.6 nM for the first, 13 nM for the second.

First: CCCCCCCCOc1cccc(-c2csc(NC(=O)c3cc(F)c(/C=C(\C)C(=O)O)c(F)c3)n2)c1OC [Compound B2004, (E)-3-{2,6-difluoro-4-[4-(2-methyloxy-3-octyloxyphenyl)thiazol-2-ylcarbamoyl]phenyl}-2-methylacrylic acid]
Second: CCCCCCCCC(OC)c1cccc(-c2csc(NC(=O)c3cc(Cl)c(C=C(C)C(=O)O)c(Cl)c3)n2)c1F (stereo not drawn) [Compound B72, 3-(2,6-dichloro-4-{4-[2-fluoro-3-(1-methyloxynonyl)phenyl]thiazol-2-ylcarbamoyl}phenyl)-2-methylacrylic acid]
The EC50 of the first is 18-fold higher: 13.9 nM for the first, 0.78 nM for the second. The second is the more potent here.

`CCCC(CCc1cccc2c1CCc1sc(NC(=O)c3cc(F)c(C=C(C)C(=O)O)c(F)c3)nc1-2)OC` (stereo not drawn) [Compound A12, 3-{2,6-difluoro-4-[4,5-dihydro-6-(3-methyloxyhexyl)naphtho[1,2-d]thiazol-2-ylcabamoyl]phenyl}-2-methylacrylic acid] and `COC(CCC(C)C)c1cccc(-c2csc(NC(=O)c3cc(F)c(C=C(C)C(=O)O)c(F)c3)n2)c1F` (stereo not drawn) [Compound B11, 3-(2,6-difluoro-4-{4-[2-fluoro-3-(1-methyloxy-4-methylpentyl)phenyl]thiazol-2-ylcarbamoyl}phenyl)-2-methylacrylic acid] are within 1.5-fold of each other in EC50: 0.8 nM for the first, 0.81 nM for the second.

First: CCCCCOCc1cccc(-c2csc(NC(=O)c3cc(Cl)c(C=C(C)C(=O)O)c(Cl)c3)n2)c1F [Compound B77, 3-{2,6-dichloro-4-[4-(2-fluoro-3-{n-pentyloxymethyl}phenyl)thiazol-2-ylcarbamoyl]phenyl}-2-methylacrylic acid]
Second: CCCCCOCCCc1cccc(-c2csc(NC(=O)c3cc(Cl)c(C=C(C)C(=O)O)c(Cl)c3)n2)c1F [Compound B90]
The EC50 of the first is 2.7-fold higher: 3.06 nM for the first, 1.15 nM for the second.

Work on `CCc1cccc2c1OCc1sc(NC(=O)c3cc(Cl)c(/C=C(\C)C(=O)O)c(Cl)c3)nc1-2` [Compound A1310, (E)-3-[2,6-dichloro-4-(6-ethyl-4H-chromeno[4,3-d]thiazol-2-ylcabamoyl)phenyl]-2-methylacrylic acid] yielded an EC50 of 12.3 nM.

same assay, conditions: 20 h + 4 h WST-1, ED50 = half concentration of the concentration showing the maximum thrombopoietic activity, Table 2

`CO/C(=C\c1c(Cl)cc(C(=O)Nc2nc(-c3cccc(CCOCCCC(C)C)c3OC)cs2)cc1Cl)C(=O)O` [Compound B1923, (Z)-3-[2,6-dichloro-4-(4-{2-methyloxy-3-[2-(4-methylpentyloxy)ethyl]phenyl}thiazol-2-ylcarbamoyl)phenyl)-2-methyloxyacrylic acid] and `CO/C(=C\c1c(Cl)cc(C(=O)Nc2nc(-c3cccc(CCCOCC4CCCC4)c3OC)cs2)cc1Cl)C(=O)O` [Compound B1951, (Z)-3-(2,6-dichloro-4-{4-[3-(3-cyclopentylmethyloxypropyl)-2-methyloxyphenyl]thiazol-2-ylcarbamoyl}phenyl)-2-methyloxyacrylic acid] are within 1.5-fold of each other in EC50: 20.2 nM for the first, 22.3 nM for the second.

`CO/C(=C\c1c(Cl)cc(C(=O)Nc2nc(-c3cccc(OCCC4CCCCC4)c3OC)cs2)cc1Cl)C(=O)O` [Compound B1919] was tested, and the EC50 was 27.9 nM.
